# Experimental data published in patent US9851354B2, “Methods of treating fragile X syndrome and related disorders” (Alcobra Ltd., priority 2013, dated 2017).
# “Also recorded” adds a separate entry of the source.
# Columns and labels:
# [1] = tested on: Fmr1 knockout (KO) or Wild Type (WT) mice; test: Y-maze water maze left right discrimination; type: in vivo, mouse; conditions: 2 months old, 150 mg/kg once daily 7 days, Study 1
# Procedure: (§1) Fmr1 knockout mice (KO2) mice (The Dutch-Belgium Fragile X Consortium, 1994), initially obtained from the Jackson Laboratory, and wild type (WT) littermates were generated on a C57BL/6J background and repeatedly backcrossed onto a C57BL/6J background for more than eight generations. The Fmr1 knockout mice were housed in groups of the same genotype in a temperature and humidity controlled room with a 12-h light-dark cycle (lights on from 7 am to 7 pm; testing was conducted during light phase). Room temperature and humidity were recorded continuously in the holding room while food and water were available ad libitum. Testing was conducted on healthy Fmr1 knockout mice and their wild type littermates (N=10 mice per treatment group) at 2 or 6 months of age during the behavioral experiments. Mice were housed in commercial plastic cages and experiments were conducted in line with the requirements of the UK Animals (Scientific Procedures) Act, 1986. All experiments were conducted with experimenters blind to genotype and drug treatment. Animals were allowed a minimum acclimatization period of one week prior to performing any experiment. No prophylactic or therapeutic treatment was administered during the acclimatization period.
# (§2) In all cases, saline was used as a vehicle (control).
# A clear Perspex Y-maze was filled with 2 cm of water at 20° C. […]
# Akt = test: Lymphocyte pAkt (flow cytometry); type: in vivo, mouse; conditions: Fmr1 KO mice, 2 months old
# Procedure: as §2
# (§3) The Ras-Mek-ERK and PI3K-Akt-mToR signaling pathways are involved in mediating activity dependent alterations in gene transcription underlying changes in synaptic plasticity (Klann and Dever, 2004). Phosphorylated ERK and Akt protein expression was measured by western blot analysis as previously described by Lopez Verrilli (Lopez Verrilli et al., 2009). The antibodies employed were anti-phosphospecific antibodies against Akt (1/1000) and kinase (ERK) 1/2 (1/2000) (Cell Signaling Technology, Danvers, Mass., USA). The antibody against phospho-ERK detects phosphorylation at phospho-ERK 1/2 (Thr202/Tyr204) whereas the antibody against phospho-Akt detects phosphorylation at phospho-Akt (Thr308). Total Akt and ERK 1/2 protein content and phosphorylated ERK and Akt were evaluated by blotting membranes with antiphospho-Akt (1/1000) and antiphospho-ERK antibodies (1/2000) (Cell Signaling Technology, Danvers, Mass., USA). Akt or ERK phosphorylation was normalized to protein content in the same sample and expressed as % of change with respect to basal conditions, considering basal levels as 100%. Protein loading was evaluated by stripping and re-blotting membranes with j-actin antibody (1/1000) (Sigma-Aldrich, St. Louis, Mo., USA). Phosphorylated ERK and Akt protein expression in blood lymphocytes was measured by flow cytometry. For lymphocyte biomarker determinations, a FACStar plus (Becton Dickinson) was used with the excitation laser tuned at 488 nm and green fluorescence from FITC (GST) was collected through a 515-545 nm bandpass filter. The mean FITC fluorescence Intensity was calculated in relation to the fluorescence of reference cells. The mean cellular fluorescence intensity (MFI) is directly proportional to the mean number of Ab molecules bound per cell.
# ERK = test: Lymphocyte pERK (flow cytometry); type: in vivo, mouse; conditions: Fmr1 KO mice, 2 months old
# Procedure: as §2, §3
# [2] = tested on: Fmr1 knockout (KO) or Wild Type (WT) mice; test: Y-maze reference memory task (rewarded); type: in vivo, mouse; conditions: 2 months old, 150 mg/kg once daily 7 days, Study 1
# Procedure: as §1, §2
# Two tasks were implemented. The first was an unlearned assessment of spontaneous alternation between arm entries. […]
# [3] = tested on: primary hippocampal neurons from Fmr1 knockout mice; test: Dendritic filopodia density and maturation in vitro; type: cell-based, mouse; conditions: neurons from Fmr1 KO mice, 300 μM, five hours
# Procedure: as §2
# Hippocampal cell cultures were prepared from wild type and Fmr1 KO fetal mice at embryonic day of gestation 17.5 (E17.5). Mice were killed by cervical dislocation and dissociated hippocampal cells were plated in 15 mm multi well vessels (Falcon Primaria). After 5 d in vitro, green fluorescent protein (GFP) was transfected to facilitate monitoring dendritic spine morphogenesis after drug treatment (Ethell and Yamaguchi, 1999; Ethell et al., 2001, Henkemeyer et al., 2003). Dendritic spines were formed at around 16 days in vitro (DIV).
# Filopodia density of GFP transfected neurons was quantified by performing Sholl analyses of stacked Zeiss confocal generated images (40× objective, stack of 20×0.2 μm). With Metamorph software, concentric equally spaced circles (every 20 μm) were drawn around the cell soma of each neuron and subsequently, the amount of filopodia was counted per circle. Averages of counts were compared with unpaired two-tailed Student's T-tests.
# Spine maturity of GFP transfected neurons was analyzed with Metamorph software (Molecular Devices, Sunnyvale, Calif.). Two distal dendritic segments of 70 100 μm were chosen per neuron for spine morphometric analysis. For each spine, the length and the width were measured. The length was defined as the distance from the base to the tip of the protrusion; whereas width was defined as the maximum distance perpendicular to the long axis of the spine. Measurements were compared with unpaired two tailed Student's T-tests and ANOVA corrected for multiple comparisons.
# [4] = tested on: Fmr1 knockout (KO) or Wild Type (WT) mice; test: Contextual fear conditioning (freezing); type: in vivo, mouse
# Procedure: as §1, §2
# In the fear conditioning experiment, mice were placed into a novel environment (dark chamber) and received pairings of a cue and electric footshock (0.2 mA for 1 sec (Study 1) or 0.7 mA for 0.5 sec (Study 2)). […] Freezing time was defined as the time that the mice spent in immobile behavior, except for respiration. The data was expressed as the percentage of the test period. 24 hours after a training session, mice were tested for 5 min in the training chamber with no shock presentation and observed for freezing behavior.
# Multivariate analysis of variance was employed to assess group differences across data. Repeated measures ANOVA were performed for behavioral data. Statistically significant effects in each ANOVA were followed with post hoc comparisons, using the Newman-Keuls test (Study 1) or the Tukey test (Study 2). A p value of less than 0.05 was considered significant.
# [5] = 150 mg/kg oral once daily 7 days
# [6] = 300 mg/kg oral once daily 7 days
structure (smiles),measurement,setting,value
"Cc1ncc(CO)c(CO)c1O.O=C1CC[C@@H](C(=O)O)N1 [metadoxine, pyridoxol L,2-pyrrolidon-5 carboxylate]",Y-maze water maze spatial discrimination (incorrect arm entries),[1],deficit was reduced
same,lymphocyte pAkt,Akt; 150 mg/kg ip once daily 7 days,normalized overactivated Akt
same,lymphocyte pAkt,Akt; [5],normalized overactivated Akt
same,lymphocyte pAkt,Akt; [6],normalized overactivated Akt
same,lymphocyte pERK,ERK; 150 mg/kg ip once daily 7 days,normalized overactivated ERK
same,lymphocyte pERK,ERK; [5],normalized overactivated ERK
same,lymphocyte pERK,ERK; [6],normalized overactivated ERK
same,Y-maze rewarded reference memory learning (appropriate arm entries),[2]; Fmr1 KO mice,reduced this deficit
same,Y-maze rewarded reference memory learning,[2]; WT mice,No Effect on WT Mice
same,density of neuronal filopodia,[3],reduced the aberrant increase in density of neuronal filopodia
same,filopodia length,[3],reversed this increase in filopodia length
same,filopodia width,[3],reversed the decrease in width
same,"contextual fear conditioning, freezing (learning deficit)","[4]; Fmr1 KO mice aged six months, 150 mg/kg ip once daily 7 days, Study 2",complete reversal
same,"contextual fear conditioning, freezing (learning deficit)","[4]; Fmr1 KO mice, 2 months old, 100 mg/kg ip once daily 7 days, Study 1",partial reversal
same,"contextual fear conditioning, freezing (learning deficit)","[4]; Fmr1 KO mice, 2 months old, 150 mg/kg ip once daily 7 days, Study 1, 150 mg/kg","reversed the learning deficit effect in Fmr1 knockout mice, this reversal being partial; also recorded: fully rescued"
same,"contextual fear conditioning, freezing behavior","[4]; Fmr1 KO mice, 2 months old, 150 mg/kg ip once daily 7 days, Study 2",the reversal was complete
same,"contextual fear conditioning, freezing behavior","[4]; Fmr1 KO mice, 2 months old, 150 mg/kg oral once daily 7 days, Study 2",the reversal was complete
same,"contextual fear conditioning, freezing (learning deficit)","[4]; Fmr1 KO mice, 2 months old, 200 mg/kg ip once daily 7 days, Study 1, 200 mg/kg",completely reversed; also recorded: fully rescued
same,"contextual fear conditioning, freezing behavior","[4]; Fmr1 KO mice, 2 months old, 300 mg/kg oral once daily 7 days, Study 2",the reversal was complete
same,"contextual fear conditioning, freezing behavior","[4]; WT mice, 2 months old, 150 mg/kg ip or 150 and 300 mg/kg oral, 7 days, Study 2",No effects were seen
same,"contextual fear conditioning, freezing","[4]; WT mice, 2 months old, 100, 150 or 200 mg/kg ip once daily 7 days, Study 1",no effect on WT mice
